The results in this text go back to US20230060350A1, “BACTERICIDAL COMPOSITION FOR CONTROLLING GUMMY STEM BLIGHT OF MELONS” (Institute of Plant Protection and Agro-products Safety, …, priority 2022, published 2023).

Test [1] relates to Stagonosporopsis cucurbitacearum. Put plainly: Indoor toxicity test, hypha growth assay on drug-containing PDA plates. Format: cell-based. To be noted: hypha growth inhibition, 25° C. As to the method: Embodiment 1 Indoor toxicity test of Pydiflumetofen and the Thifluzamide on Stagonosporopsis cucurbitacearum
Bactericidal properties of the Pydiflumetofen and the Thifluzamide were analyzed in detail. EC50 […] of two single components such as the Pydiflumetofen and the Thifluzamide (hereinafter referred to as agents) was tested first; a combination ratio of the two agents was set by a Wadley method according to the EC50 of the two single agents, and according to a Wadley synergistic coefficient SR value.
A test object was Stagonosporopsis cucurbitacearum of melons, but was not limited herein. […] Hypha growth assay was adopted during the test; drug containing media were prepared according to different treatments; hypha blocks having a diameter of 5 mm were prepared on the edges of the pre-culture colonies by using the sterilized puncher and respectively transferred onto medium plates with different drug content; a colony diameter was tested by a crossing method; the colony diameter (mm) was measured; and a growth inhibition ratio was calculated by the following formula: […]
Interaction of the mixture was evaluated according to the Wadley method; and a calculation formula was as follows: […]
In the formula, a and b were content ratios of various components in the mixture; and a mixing effect was analyzed based on the value SR.

Test [2] deals with gummy stem blight of Trichosanthes kirilowii maxim. Description: Field control experiment on gummy stem blight of Trichosanthes kirilowii maxim. Format: in vivo. The text has this:
Embodiment 3: Field Control Experiment of Pydiflumetofen and the Thifluzamide on Gummy Stem Blight of Trichosanthes kirilowii maxim
Control tests of gummy stem blight of Trichosanthes kirilowii maxim were respectively conducted in 2020 and 2021. Test data in 2021 were collected as follows: the 20% Pydiflumetofen·Thifluzamide suspension, 20% Pydiflumetofen suspension, 30% Thifluzamide suspension and 25% Azoxystrobin suspension in embodiment 2 were respectively used in the experiment. The variety of the tested Trichosanthes kirilowii maxim was “Wanlou 9”; the test location was a Trichosanthes kirilowii maxim field in Gangji experimental production base in Anhui Academy of Agricultural Sciences; water consumption per mu was 30 kg; the Trichosanthes kirilowii maxim was subjected to agent control at an early stage of growing and flowering (May 20); and disease condition survey was conducted within 30 days (Table 2).

In test [3] the test system is gummy stem blight of the watermelon. Put plainly: Greenhouse control experiment on gummy stem blight of watermelon. Format: in vivo. The text has this: Embodiment 4: Field Control Experiment of Pydiflumetofen and the Thifluzamide on Gummy Stem Blight of Watermelon Control tests of gummy stem blight of watermelons were respectively conducted in 2020 and 2021. Test data in 2021 were collected as follows: the 18% Pydiflumetofen·Thifluzamide water dispersible granules, 20% Pydiflumetofen suspension, 30% Thifluzamide suspension and 25% Azoxystrobin suspension in embodiment 1 were respectively used in the experiment. The variety of the tested watermelon was “Zaojia 8424”; the test location was a watermelon greenhouse in Gangji experimental production base in Anhui Academy of Agricultural Sciences; water consumption per mu was 30 kg; the watermelons were subjected to agent control for the first time within 30 days after field planting of watermelon seedlings, and then subjected to agent control for the second time within 10 days after the first control; and disease condition survey was conducted within 30 days after the second agent control (Table 3).

Consider `Cc1nc(C(F)(F)F)c(C(=O)Nc2c(Br)cc(OC(F)(F)F)cc2Br)s1` [Thifluzamide], for which, in test [1], the EC50 is 0.0451 ppm. Besides, the “Control effect (in words)” value in test [2] and in test [3] was “significant control effects” each time.
Regarding `CON(C(=O)c1cn(C)nc1C(F)F)C(C)Cc1c(Cl)cc(Cl)cc1Cl` (racemic) [Pydiflumetofen, 3-(difluoromethyl)-N-methoxy-1-methyl-N-[(RS)-1-methyl-2-(2,4,6-trichlorophenyl)ethyl]pyrazol-4-formamide], the EC50 in test [1] came to 0.0109 ppm. Moreover, the “Control effect (in words)” value in test [2] and in test [3] was “significant control effects” in each case.
